Assay results published in paper PMC9920749, “In Vitro and In Silico Studies of Neolignans from Magnolia grandiflora L. Seeds against Human Cannabinoids and Opioid Receptors” (Molecules, 2023).
Like-named read-outs stand apart in the source and are kept apart here.

Experiments:
[1] = target: T1, CB2R (Homo sapiens, UniProt P34972); assay: Competitive radioligand binding assay, [3H]-CP55,940, HEK293 membranes; conditions: for Cannabinoid Receptors (% Displacement) CB2: 10 μM purified compounds and 2 + 3
T1 construct: expressed in transfected cells; host or cells: HEK293 (ATCC), stably transfected; membrane preparation
T1 sequence (P34972 whole entry): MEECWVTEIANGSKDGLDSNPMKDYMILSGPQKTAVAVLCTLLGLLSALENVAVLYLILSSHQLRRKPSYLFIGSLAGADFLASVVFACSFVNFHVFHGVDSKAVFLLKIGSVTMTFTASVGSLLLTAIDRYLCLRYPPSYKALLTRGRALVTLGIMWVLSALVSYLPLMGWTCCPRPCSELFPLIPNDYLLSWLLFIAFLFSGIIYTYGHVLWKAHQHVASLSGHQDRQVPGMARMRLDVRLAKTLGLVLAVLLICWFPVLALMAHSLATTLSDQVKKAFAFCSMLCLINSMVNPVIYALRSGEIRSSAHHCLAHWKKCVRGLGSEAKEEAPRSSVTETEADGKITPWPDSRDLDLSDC
Experimental: (§1) Cannabinoid and opioid competitive radioligand binding assays were performed as previously described. Saturation experiments were performed for all the receptors to determine receptor concentration and radioligand dissociation constant (Kd) for the membrane. Percent displacements were evaluated for all the cannabinoid and opioid subtypes with a triplicate of a fixed concentration (10 µg/mL for extracts and fractions, 10 μM for purified compounds). […] Control/test compounds were dissolved in DMSO at 10 μg/mL for extracts and fractions and 10 μM for purified compounds. […] The competitive binding assays were performed using 12 serial dilutions of each compound ranging from 0.002–300 μM (control compounds were serially diluted from 10 μM to 0.06 nM). The cannabinoid assays were incubated for 90 min at 37 °C with gentle agitation. The opioid assays were incubated for 60 min at room temperature. Bound radioligand was collected on GF/C (cannabinoid) or GF/B plates (opioid), washed 10 times with ice-cold 50 mM Tris-HCl (pH 7.4)/0.1% BSA (cannabinoid) or ice-cold 50 mM Tris-HCl (pH 7.4) (opioid). Radiodetection was measured with 50 µL (cannabinoid) or 25 µL (opioid) MicroScint^TM-20 on a TopCount NXT HTS Microplate Scintillation Counter (PerkinElmer, Waltham, MA, USA). The IC50 and Ki values were calculated by a non-linear curve fit model using GraphPad Prizm 5.0 software (GraphPad Software Inc., San Diego, CA, USA). Each compound was tested in triplicate unless stated otherwise.
(§2) Percent displacement was calculated to represent the ability of the samples to displace the radioligand binding for a given cannabinoid or opioid receptor subtype.
(§3) % displacement was calculated as follows: 100− binding of compound−nonspecific binding/specific binding×100

[2] = target: CB2R; conditions: cited from earlier work
[3] = tested on: CB2R; set-up: method as in Schuehly et al. (2011); conditions: ref Schuehly et al. (2011); cited from earlier work
[4] = tested on: CB2 receptor; set-up: method as in PMID 24204944; conditions: forskolin-induced cAMP; cited from earlier work
[5] = tested on: CB1 receptor; set-up: method as in PMID 24204944; conditions: forskolin-induced cAMP; cited from earlier work
[6] = target: T2, δ opioid receptor (Homo sapiens, UniProt P41143); assay: Competitive radioligand binding assay, [3H]-enkephalin (DPDPE), HEK293 membranes; conditions: 10 μM purified compounds and 2 + 3
T2 construct: host or cells: HEK293, stably transfected; membrane preparation
T2 sequence (P41143 whole entry): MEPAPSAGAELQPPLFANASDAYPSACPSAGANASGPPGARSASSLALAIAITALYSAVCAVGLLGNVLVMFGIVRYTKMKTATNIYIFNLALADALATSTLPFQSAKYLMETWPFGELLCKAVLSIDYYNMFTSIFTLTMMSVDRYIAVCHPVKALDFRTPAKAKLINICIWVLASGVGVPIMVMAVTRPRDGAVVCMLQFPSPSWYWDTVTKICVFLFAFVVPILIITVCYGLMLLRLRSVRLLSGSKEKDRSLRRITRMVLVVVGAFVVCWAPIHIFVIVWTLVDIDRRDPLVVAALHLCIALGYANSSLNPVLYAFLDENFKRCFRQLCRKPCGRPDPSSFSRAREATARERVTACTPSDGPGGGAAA
Experimental: (§4) HEK293 cells stably transfected with δ, κ, and μ opioid subtypes were a generous gift from Roth Laboratories (University of North Carolina at Chapel Hill, NC, USA). Opioid cells were maintained as previously described. Membranes were made by washing the cells with cold PBS. The cells were then scraped in cold 50 mM Tris-HCl, pH 7.4 buffer. The solution was centrifuged at 5200× g for 10 min at 4 °C. Next, the supernatant was discarded, and the pellet was washed with more Tris-HCl buffer, homogenized via Sonic Dismembrator (Fisher Scientific, Pittsburgh, PA, USA) and then centrifuged at 24,000× g for 40 min at 4 °C. […] The total membrane protein concentration was measured using a Pierce BCA Protein Assay Kit (Thermo Scientific, Rockford, IL, USA) as per the manufacturer’s protocol.
(§5) Cannabinoid and opioid competitive radioligand binding assays were performed as previously described. […] Percent displacements were evaluated for all the cannabinoid and opioid subtypes with a triplicate of a fixed concentration (10 µg/mL for extracts and fractions, 10 μM for purified compounds). […] Radiodetection was measured with 50 µL (cannabinoid) or 25 µL (opioid) MicroScint^TM-20 on a TopCount NXT HTS Microplate Scintillation Counter (PerkinElmer, Waltham, MA, USA). The IC50 and Ki values were calculated by a non-linear curve fit model using GraphPad Prizm 5.0 software (GraphPad Software Inc., San Diego, CA, USA). […]

[7] = target: T3, κ opioid receptor (Homo sapiens, UniProt P41145); type: binding; conditions: 10 μM purified compounds and 2 + 3
T3 construct: host or cells: HEK293, stably transfected; membrane preparation
T3 sequence (P41145 whole entry): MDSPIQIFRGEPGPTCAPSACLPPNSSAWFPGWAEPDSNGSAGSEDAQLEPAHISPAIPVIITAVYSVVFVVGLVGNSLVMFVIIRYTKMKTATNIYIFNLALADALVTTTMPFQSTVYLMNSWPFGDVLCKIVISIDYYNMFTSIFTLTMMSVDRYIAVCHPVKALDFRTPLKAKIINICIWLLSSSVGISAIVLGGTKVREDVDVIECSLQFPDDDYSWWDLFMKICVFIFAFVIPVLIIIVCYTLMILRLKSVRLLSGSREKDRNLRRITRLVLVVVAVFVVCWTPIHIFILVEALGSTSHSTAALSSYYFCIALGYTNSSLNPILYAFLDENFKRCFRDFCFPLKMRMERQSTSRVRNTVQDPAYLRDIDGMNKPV
Experimental: as §4, §5

[8] = target: T4, µ opioid receptor (Homo sapiens, UniProt P35372); assay: biochemical; type: binding; conditions: for Opioid Receptors (% Displacement) µ: 10 μM purified compounds and 2 + 3; for IC50: 2 and 3 run as a singlet; for µ Opioid Receptor Ki ± SEM / Ki: 2 and 3 run as a singlet (no S.E.M.); for Ki: read-out: µ Opioid Receptor Ki ± SEM
T4 construct: host or cells: HEK293, stably transfected; membrane preparation
T4 sequence (P35372 whole entry): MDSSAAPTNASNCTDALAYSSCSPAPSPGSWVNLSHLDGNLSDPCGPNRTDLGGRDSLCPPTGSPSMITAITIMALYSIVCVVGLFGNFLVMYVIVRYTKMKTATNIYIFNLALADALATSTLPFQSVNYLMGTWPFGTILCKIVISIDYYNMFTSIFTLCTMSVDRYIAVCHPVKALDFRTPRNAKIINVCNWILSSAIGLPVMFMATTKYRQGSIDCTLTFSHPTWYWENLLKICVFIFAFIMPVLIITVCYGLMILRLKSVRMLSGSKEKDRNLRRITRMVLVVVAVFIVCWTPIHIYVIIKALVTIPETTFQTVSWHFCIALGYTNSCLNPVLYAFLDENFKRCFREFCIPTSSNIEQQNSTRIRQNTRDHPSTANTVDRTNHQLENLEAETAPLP
Experimental: (§6) HEK293 cells stably transfected with δ, κ, and μ opioid subtypes were a generous gift from Roth Laboratories (University of North Carolina at Chapel Hill, NC, USA). Opioid cells were maintained as previously described. Membranes were made by washing the cells with cold PBS. The cells were then scraped in cold 50 mM Tris-HCl, pH 7.4 buffer. The solution was centrifuged at 5200× g for 10 min at 4 °C. Next, the supernatant was discarded, and the pellet was washed with more Tris-HCl buffer, homogenized via Sonic Dismembrator (Fisher Scientific, Pittsburgh, PA, USA) and then centrifuged at 24,000× g for 40 min at 4 °C. Finally, the pellet was re-suspended in cold 50 mM Tris-HCl buffer, aliquoted into 2 mL vials, and stored at −80 °C. The total membrane protein concentration was measured using a Pierce BCA Protein Assay Kit (Thermo Scientific, Rockford, IL, USA) as per the manufacturer’s protocol.
as §1, §2, §3

[9] = target: CB1R; conditions: data from the original publication; read-out: CB1R Agonist Ki; cited from earlier work
[10] = tested on: CB2R; set-up: method as in earlier work; conditions: ref 27 (Rempel et al. 2013); cited from earlier work
[11] = target: T5, CB1R (Homo sapiens, UniProt P21554); assay: Competitive radioligand binding assay, [3H]-CP55,940, HEK293 membranes; conditions: for Cannabinoid Receptors (% Displacement) CB1: 10 μM purified compounds and 2 + 3; for IC50: concentration for 50% displacement of 3H-labeled ligand; for Ki: read-out: CB1R Ki ± SEM
T5 construct: expressed in transfected cells; host or cells: HEK293 (ATCC), stably transfected; membrane preparation
T5 sequence (P21554 whole entry): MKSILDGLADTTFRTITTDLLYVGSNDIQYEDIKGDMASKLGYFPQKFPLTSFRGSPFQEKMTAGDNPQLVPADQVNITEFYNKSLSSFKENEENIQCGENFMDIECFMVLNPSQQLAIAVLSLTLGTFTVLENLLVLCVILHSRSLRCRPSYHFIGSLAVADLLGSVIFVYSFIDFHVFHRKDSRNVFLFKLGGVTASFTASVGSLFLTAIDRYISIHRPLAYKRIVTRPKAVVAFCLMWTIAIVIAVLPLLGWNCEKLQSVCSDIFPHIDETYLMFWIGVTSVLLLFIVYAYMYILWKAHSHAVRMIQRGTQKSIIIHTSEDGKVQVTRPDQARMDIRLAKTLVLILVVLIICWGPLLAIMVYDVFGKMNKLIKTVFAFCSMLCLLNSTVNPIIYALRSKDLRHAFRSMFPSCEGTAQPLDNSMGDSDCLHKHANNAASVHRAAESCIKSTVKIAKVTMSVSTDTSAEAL
Experimental: as §6, §1, §2, §3

[12] = data from the original publication, read-out: CB2R Agonist Ki
[13] = concentration for 50% displacement of 3H-labeled ligand, read-out: CB2R IC50

CCCCCCC(C)(C)c1ccc([C@@H]2C[C@H](O)CC[C@H]2CCCO)c(O)c1 [CP55,940, reference compound]
Cannabinoid Receptors (% Displacement) CB2 [1]: 101.3%

C=CCc1ccc(O)c(-c2ccc(OC)c(CC=C)c2)c1 [Compound 1, 4-O-methylhonokiol]
Ki [2, 12]: 43.3 ± 17.1 nM | behavior at CB2R at Gi/o [3]: inverse agonist | behavior at CB2R regarding intracellular Ca2+ [Ca2+]i [3]: full agonist | functional activity at CB2 in cAMP accumulation [4]: agonist | IC50 [1]: 590 nM | Ki [1]: 290 ± 20 nM | Cannabinoid Receptors (% Displacement) CB2 [1]: 82.2% | functional activity at CB1 in cAMP accumulation [5]: agonist | Opioid Receptors (% Displacement) Δ [6]: 31.4% | Opioid Receptors (% Displacement) κ [7]: 18.3% | Opioid Receptors (% Displacement) µ [8]: 46.2%

C=CCc1ccc(O)c(-c2cc(CC=C)ccc2O)c1 [Compound 2, magnolol]
Ki [2, 12]: 1440 nM | Ki [9]: 3150 nM | functional character at CB2R [10]: partial CB2R agonists | Cannabinoid Receptors (% Displacement) CB1 [11]: 52.7% | IC50 [11]: 35600 nM | Ki [11]: 17800 ± 3430 nM | Cannabinoid Receptors (% Displacement) CB2 [1]: 74.7% | IC50 [1, 13]: 2890 nM | Ki ([1]; read-out: CB2R Ki ± SEM): 1400 ± 140 nM | Opioid Receptors (% Displacement) Δ [6]: 7.3% | Opioid Receptors (% Displacement) κ [7]: 10.7% | Opioid Receptors (% Displacement) µ [8]: 52.9% | IC50 [8]: 106000 nM | µ Opioid Receptor Ki ± SEM [8]: low affinity | Ki [8]: 53100 nM

C=CCc1ccc(O)c(-c2ccc(O)c(CC=C)c2)c1 [Compound 3, honokiol]
Ki [2, 12]: 5610 nM | Ki [9]: 6460 nM | functional character at CB2R [10]: CB2R antagonist or inverse agonist | Cannabinoid Receptors (% Displacement) CB1 [11]: 50.8% | IC50 [11]: 29100 nM | Ki [11]: 14500 ± 2470 nM | Cannabinoid Receptors (% Displacement) CB2 [1]: 65.7% | IC50 [1, 13]: 3880 nM | Ki ([1]; read-out: CB2R Ki ± SEM): 1940 ± 160 nM | Opioid Receptors (% Displacement) µ [8]: 54.2% | IC50 [8]: 91100 nM | µ Opioid Receptor Ki ± SEM [8]: low affinity | Ki [8]: 182000 nM

CCCc1ccc(O)c(-c2cc(CCC)ccc2O)c1 [Compound 4, tetrahydromagnolol]
Ki [2, 12]: 416 nM | Ki ([2]; ref 27 (Rempel et al. 2013), read-out: CB2R Ki): 410 nM | Ki [9]: 2260 nM | functional character at CB2R [10]: partial CB2R agonists | Cannabinoid Receptors (% Displacement) CB1 [11]: 30.8% | IC50 [11]: 38200 nM | Ki [11]: 19100 ± 790 nM | Cannabinoid Receptors (% Displacement) CB2 [1]: 78.2% | IC50 [1, 13]: 1990 nM | Ki ([1]; read-out: CB2R Ki ± SEM): 990 ± 140 nM

CCCc1ccc(O)c(-c2cc(CCC)ccc2OC)c1 [Compound 4a, methoxytetrahydromagnolol]
Ki [2, 12]: 221 ± 57 nM | Ki [9]: 267 ± 58 nM

CCCCCc1ccc(O)c(-c2cc(CCC)ccc2O)c1 [Compound 5]
Ki [2, 12]: 37.5 ± 7.8 nM | Ki [9]: 362 ± 113 nM

CCCCCc1ccc(O)c(-c2cc(CCC)ccc2OC)c1 [Compound 5a]
Ki [2, 12]: 31 ± 9.9 nM | Ki [9]: 17.3 ± 1.4 nM

CCCCCCc1ccc(O)c(-c2cc(CCC)ccc2O)c1 [Compound 6]
Ki [2, 12]: 29.4 ± 9 nM | Ki [9]: 145 ± 48 nM

CCCCCCc1ccc(O)c(-c2cc(CCC)ccc2OC)c1 [Compound 6a]
Ki [2, 12]: 23.8 ± 7.1 nM | Ki [9]: 9.57 ± 5.43 nM

CCCCCCc1ccc(OC)c(-c2cc(CCC)ccc2O)c1 [Compound 6b]
Ki [2, 12]: 281 ± 101 nM | Ki [9]: 313 nM
